Measurements from US7417156B2, “Orally active, antimalarial, anticancer, artemisinin-derived trioxane dimers” (Johns Hopkins University, priority 2002, dated 2008).

Key:
A549/ATCC = experiment: NCI 60 cell line panel screen (SRB); assay type: cell-based, human; settings: for Log10LC50 / Log10TGI50: A549/ATCC (Non-Small Cell Lung Cancer); for Log10LC50: LC50: PG=−50; for Log10TGI50: TGI: PG=0; for Log10GI50: Non-Small Cell Lung Cancer, A549/ATCC
NCI-H522 = experiment: NCI 60 cell line panel screen (SRB); assay type: cell-based, human; settings: for Log10TGI50: NCI-H522 (Non-Small Cell Lung Cancer), TGI: PG=0; for Log10LC50: NCI-H-522 (Non-Small Cell Lung Cancer), LC50: PG=−50; for Log10GI50: Non-Small Cell Lung Cancer, NCI-H522
CAKI-1 = experiment: NCI 60 cell line panel screen (SRB); assay type: cell-based, human; settings: for Log10LC50 / Log10TGI50: CAKI-1 (Renal Cancer); for Log10LC50: LC50: PG=−50; for Log10TGI50: TGI: PG=0; for Log10GI50: Renal Cancer, CAKI-1
malaria parasite = experiment: Efficacy Study Blood Schizontocidal Activity; assay type: in vivo; design: ED90: unit not given here
[1] = tested on: P. berghei NY malaria parasite; experiment: Antimalarial efficacies in vivo in mice
Description: Neither overt toxicity nor behavioral modification was observed due to drug administration in any of these mouse experiments.

UACC-62 = experiment: NCI 60 cell line panel screen (SRB); assay type: cell-based, human
SK-MEL-5 = experiment: NCI 60 cell line panel screen (SRB); assay type: cell-based, human
HCC-2998 = experiment: NCI 60 cell line panel screen (SRB); assay type: cell-based, human; settings: HCC-2998 (Colon Cancer)
OVCAR-4 = experiment: NCI 60 cell line panel screen (SRB); assay type: cell-based, human
male CD-1 mice = experiment: Acute toxicity study, single intraperitoneal injection; settings: for Mortality: single ip, male CD-1 mice
Protocol: Each compound was dissolved in DMSO (Mallinkrodt Lot No. V18H15) to achieve a concentration of 200 mg/ml, and then 3 parts sesame oil (Spectrum Lot No. M10656) was added to make a working concentration of 50 mg/ml for dose administration. Stability, strength, and uniformity of the test articles in the dose formulations were not determined for this study.
Forty-two CD1 male mice purchased from Charles River Laboratories (Wilmington, Mass.) were used in the study. Mice were quarantined for 3 days prior to initiation of the study.
Mice were weighed and randomized into treatment groups on the day prior to the first dose administration. Due to limitations in the amount of available test materials, fewer mice in 1000 mg/kg groups were treated than specified in the protocol. The numbers of animals intended to be used and actually used with each compound at each dose level are shown in the table below; the only differences are in the high-dose groups.
Surviving animals were sacrificed on Day 8 and blood was collected for clinical pathology evaluations.
Mortality and morbidity were checked twice daily on weekdays and once daily on the weekend, see Table VI. Animals were weighed daily and prior to necropsy.

SN12C = experiment: NCI 60 cell line panel screen (SRB); assay type: cell-based, human
SW-620 = experiment: NCI 60 cell line panel screen (SRB); assay type: cell-based, human
LOX IMVI = experiment: NCI 60 cell line panel screen (SRB); assay type: cell-based, human
SF-295 = experiment: NCI 60 cell line panel screen (SRB); assay type: cell-based, human
A498 = experiment: NCI 60 cell line panel screen (SRB); assay type: cell-based, human
DU-145 = experiment: NCI 60 cell line panel screen (SRB); assay type: cell-based, human

## C[C@@H]1CC[C@H]2[C@@H](C)C(CC(O)(CC3OC4O[C@]5(C)CC[C@H]6[C@H](C)CC[C@@H]([C@H]3C)C46OO5)c3ccc(C(=O)O)cc3)OC3O[C@]4(C)CCC1C32OO4 (some centres unmarked) [Compound 11b, bis-trioxane tertiary alcohol benzoic acid]
A549/ATCC
  Log10LC50: >−4.30 log10M
  Log10TGI50: >−4.30 log10M
  Log10GI50: −5.69
NCI-H522
  Log10TGI50: >−4.30 log10M
  Log10LC50: >−4.30 log10M
  Log10GI50: −6.54
CAKI-1
  Log10LC50: −4.44 log10M
  Log10TGI50: −6.91 log10M
  Log10GI50: −7.74

## CC1CCC2C(C)C(CC(COCC(=O)O)CC3OC4OC5(C)CCC6C(C)CCC(C3C)C46OO5)OC3OC4(C)CCC1C32OO4 (centres unmarked) [Compound 12b, bis-trioxane O-acetic acid]
A549/ATCC
  Log10TGI50: >−4.30 log10M
  Log10GI50: >−4.30
NCI-H522
  Log10TGI50: >−4.30 log10M
  Log10GI50: >−4.30
Malaria parasite; Route: IV
  ED50: 5.2
  ED90: 10.0
Malaria parasite; Route: PO
  ED50: 6.0
  ED90: 19.0
[1]; route IV
  ED50: 1.0 mg/kg × 4
  ED90: 3.5 mg/kg × 4
  % Parasite Supression at 10 mg/kg: 95.7%
[1]; route PO
  ED50: 6.5 mg/kg × 4
  ED90: 17.0 mg/kg × 4
  % Parasite Supression at 10 mg/kg: 46.5%
CAKI-1
  Log10TGI50: −6.40 log10M
  Log10GI50: −6.91

## CC1CCC2C(C)C(CC(COC(=O)c3cc[n+]([O-])cc3)CC3OC4OC5(C)CCC6C(C)CCC(C3C)C46OO5)OC3OC4(C)CCC1C32OO4 (centres unmarked) [Compound 13, bis-trioxane primary alcohol isonicotinate N-oxide]
A549/ATCC
  Log10LC50: >−4.30 log10M
  Log10TGI50: −4.61 log10M
  Log10GI50: −5.98
UACC-62; Melanoma, UACC-62
  Log10GI50: −8.00
UACC-62; UACC-62 (Melanoma), LC50: PG=−50
  Log10LC50: −4.66 log10M
UACC-62; UACC-62 (Melanoma), TGI: PG=0
  Log10TGI50: −5.07 log10M
SK-MEL-5; Melanoma, SK-MEL-5
  Log10GI50: <−8.30
SK-MEL-5; SK-MEL-5 (Melanoma), LC50: PG=−50
  Log10LC50: −4.73 log10M
SK-MEL-5; SK-MEL-5 (Melanoma), TGI: PG=0
  Log10TGI50: −5.28 log10M
NCI-H522
  Log10TGI50: −4.60 log10M
  Log10LC50: >−4.30 log10M
HCC-2998; LC50: PG=−50
  Log10LC50: −4.55 log10M
HCC-2998; TGI: PG=0
  Log10TGI50: −4.91 log10M
OVCAR-4; OVCAR-4 (Ovarian Cancer), LC50: PG=−50
  Log10LC50: −4.42 log10M
OVCAR-4; OVCAR-4 (Ovarian Cancer), TGI: PG=0
  Log10TGI50: −4.93 log10M
OVCAR-4; Ovarian Cancer, OVCAR-4
  Log10GI50: <−8.30
Malaria parasite; Route: IV
  ED50: 0.55 mg/kg
  ED90: 2.0
Malaria parasite; Route: PO
  ED50: 4 mg/kg
  ED90: 9.0
Malaria parasite; orally and i.v.
  efficacy relative to sodium artesunate in words: more efficacious
Male CD-1 mice; 125 mg/kg
  Mortality: No death
Male CD-1 mice; 250 mg/kg
  Mortality: No death
Male CD-1 mice; 500 mg/kg
  Mortality: 3/3 dead
Male CD-1 mice; 750 mg/kg
  Mortality: 2/3 dead
Male CD-1 mice; intraperitoneally to mice as a single dose
  toxicity relative to sodium artesunate in words: less toxic
SN12C; Renal Cancer, SN12C
  Log10GI50: <−8.30
SN12C; SN12C (Renal Cancer), LC50: PG=−50
  Log10LC50: −4.72 log10M
SN12C; SN12C (Renal Cancer), TGI: PG=0
  Log10TGI50: −5.29 log10M
SW-620; Colon Cancer, SW-620
  Log10GI50: <−8.30
SW-620; SW-620 (Colon Cancer), LC50: PG=−50
  Log10LC50: −4.53 log10M
SW-620; SW-620 (Colon Cancer), TGI: PG=0
  Log10TGI50: −5.05 log10M
LOX IMVI; LOX IMVI (Melanoma), LC50: PG=−50
  Log10LC50: −5.78 log10M
LOX IMVI; LOX IMVI (Melanoma), TGI: PG=0
  Log10TGI50: <−8.30 log10M
LOX IMVI; Melanoma, LOX IMVI
  Log10GI50: <−8.30
SF-295; CNS Cancer, SF-295
  Log10GI50: −5.21
SF-295; SF-295 (CNS Cancer), LC50: PG=−50
  Log10LC50: −4.33 log10M
SF-295; SF-295 (CNS Cancer), TGI: PG=0
  Log10TGI50: −4.77 log10M
CAKI-1
  Log10LC50: −4.66 log10M
  Log10TGI50: −5.11 log10M
  Log10GI50: −7.36
A498; A498 (Renal Cancer), LC50: PG=−50
  Log10LC50: −4.74 log10M
A498; A498 (Renal Cancer), TGI: PG=0
  Log10TGI50: −5.31 log10M
A498; Renal Cancer, A498
  Log10GI50: −6.97
DU-145; DU-145 (Prostate Cancer), TGI: PG=0
  Log10TGI50: −5.00 log10M
DU-145; Prostate Cancer, DU-145
  Log10GI50: −7.48
